The text below walks through data of paper PMC6429202, “Drug-1,3,4-Thiadiazole Conjugates as Novel Mixed-Type Inhibitors of Acetylcholinesterase: Synthesis, Molecular Docking, Pharmacokinetics, and ADMET Evaluation” (Molecules, 2019).

Like-named read-outs stand apart in the source and are kept apart here.

For test [1], the target named is T1, AChE from human erythrocytes (Homo sapiens, UniProt P22303).
T1 construct: AChE from human erythrocytes; from tissue; host or cells: human erythrocytes
The test is described as follows: Acetylcholinesterase inhibition assay (Ellman method). Type of test: biochemical. On the procedure: The inhibitory activities of the synthesized compounds were analyzed spectrophotometrically using acetylthiocholine iodide as the substrate by following the method of Ellman et al.. In general, the reaction mixture comprised 180 µL of 50 mM of Tris HCl buffer (pH 8.0) with 0.1 M of sodium chloride and 0.02 M of magnesium chloride, to which 20 µL of enzyme (AChE, EC 3.1.1.7, AChE from human erythrocytes) solution was added (50 U in each well). The synthesized compounds (10 µL at the concentration being tested for their impact on growth) were added to the reaction mixture, and the mixtures were pre-incubated for 30 min at 4 °C. Then, 5,5′-dithiobis(2-nitrobenzoic acid) (0.3 mM, 20 µL) and acetylthiocholine iodide (1.8 mM, 20 µL) were added to the assay solution, and the mixtures were incubated at 37 °C for 10 min. After the incubation period, the absorbance of each well was measured at 412 nm. For the non-enzymatic reaction, the assays were carried out with a blank containing all the components except AChE. The assay measurements were collected at […] using a microplate reader (OPTI Max, Tunable, Molecular Devices, Sunnyvale, CA, USA). IC50 values were calculated using GraphPad Prism 5.0 through non-linear regression. Each experiment was performed in triplicate.
The percentage of inhibition of […] was calculated: inhibition (%) = [(Blank−Sample)/Blank] × 100.
On the technique in general: Ellman's reagent forms a yellow product with free thiols.

Test [2] is described as follows: DPPH free radical scavenging assay. The conditions noted are these: tested at 100 µg/mL; compared with vitamin C. On the procedure: The synthesized compounds were further evaluated for their 2,2-diphenyl-1-picrylhydrazyl (DPPH) radical scavenging capacity. To evaluate their DPPH inhibition abilities, a radical scavenging assay was performed. The assay mixtures contained 20 µL of increasing concentrations of the test compounds and 100 µL of DPPH (150 µM), and the total volume of each well was brought up to 200 µL with methanol. Then, the mixture was incubated for 30 min at room temperature. For comparison and assay validity, ascorbic acid (vitamin C) was used as a positive control. The absorbance was recorded at 517 nm using a microplate reader (OPTI Max, Tunable). The results were calculated as percent inhibition. All of the concentrations were evaluated in triplicate.

Test [3] addresses T1, AChE from human erythrocytes. The test is described as follows: Kinetic study of AChE inhibition (Lineweaver–Burk plots). Type of test: biochemical. Particulars: for Vmax: substrate acetylthiocholine iodide. On the procedure:
To determine the inhibition mechanism, a kinetic study was carried out. Compound 3b was selected from the synthesized compounds for kinetic analysis to determine its inhibition potential. The identification of the inhibition mode of compound 3b began by using a series of concentrations of acetylthiocholine iodide (0.00 µM, 0.009 µM, 0.018 µM, and 0.036 µM) with various concentrations of 3b. […] The highest reaction rates were calculated from the initial linear portion of the absorbance plot, which represented the five minutes following the addition of the enzyme, and absorbance data were collected at 30-second intervals. The type of enzyme inhibition was determined from the Lineweaver–Burk plots of the inverse of velocity (1/V) versus the inverse of substrate concentration (1/[S] mM^−1).
The efficiency of 3b in blocking the free enzyme and enzyme–substrate complex was investigated in terms of its enzyme inhibition (EI) and enzyme–substrate inhibition (ESI) constants. […] The plots of the effects of complex 3b were linear and appeared in the second quadrant.

Where [4] appears, read: mean ± SEM, triplicate, substrate acetylthiocholine iodide, read-out: Acetylcholine Esterase (from Human Erythrocytes) IC50 ± SEM.

T1 sequence (P22303 other isoform, or with tags, fused parts or gaps): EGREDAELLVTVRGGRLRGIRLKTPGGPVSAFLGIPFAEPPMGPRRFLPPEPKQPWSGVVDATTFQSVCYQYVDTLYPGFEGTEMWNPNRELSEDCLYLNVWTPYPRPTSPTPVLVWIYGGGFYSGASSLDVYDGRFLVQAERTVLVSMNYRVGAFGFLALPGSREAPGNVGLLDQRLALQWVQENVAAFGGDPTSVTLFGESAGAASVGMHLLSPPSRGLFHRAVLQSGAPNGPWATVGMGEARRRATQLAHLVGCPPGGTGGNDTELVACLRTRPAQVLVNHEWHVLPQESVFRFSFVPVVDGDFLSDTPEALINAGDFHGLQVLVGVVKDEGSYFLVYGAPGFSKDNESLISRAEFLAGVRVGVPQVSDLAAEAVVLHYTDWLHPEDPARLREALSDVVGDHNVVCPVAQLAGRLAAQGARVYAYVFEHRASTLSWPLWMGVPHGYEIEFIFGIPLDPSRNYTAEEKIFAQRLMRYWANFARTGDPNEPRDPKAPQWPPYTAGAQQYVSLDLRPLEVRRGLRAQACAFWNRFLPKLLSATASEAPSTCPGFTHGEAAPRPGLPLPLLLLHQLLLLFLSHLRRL

For `Nc1nnc(-c2cn(C3CC3)c3cc(N4CCN(C(=O)c5ccc(Cl)cc5Cl)CC4)c(F)cc3c2=O)s1` [Compound 3i, 3-(5-amino-1,3,4-thiadiazol-2-yl)-1-cyclopropyl-7-(4-(2,4-dichlorobenzoyl)piperazin-1-yl)-6-fluoroquinolin-4(1H)-one], in test [1] (setting [4]), the IC50 was 29.2 ± 1.46 µM.
As for `Nc1nnc(-c2cn(C3CC3)c3cc(N4CCNCC4)c(F)cc3c2=O)s1` [Compound 3a, 3-(5-amino-1,3,4-thiadiazol-2-yl)-1-cyclopropyl-6-fluoro-7-(piperazin-1-yl)quinolin-4(1H)-one], the IC50 in test [1] was determined as 0.126 ± 0.0036 µM. Also, the “Free radical scavenging potency (DPPH)” value in test [2] is given as “excellent radical scavenging potency”.
Regarding `C[C@@H]1COc2c(N3CCNCC3)c(F)cc3c(=O)c(-c4nnc(N)s4)cn1c23` [Compound 3b, (R)-6-(5-amino-1,3,4-thiadiazol-2-yl)-9-fluoro-3-methyl-10-(piperazin-1-yl)-2H-[1,4]oxazino[2,3,4-ij]quinolin-7(3H)-one], in test [1] (setting [4]), the IC50 is 0.0181 ± 0.0009 µM. The “Free radical scavenging potency (DPPH)” value in test [2] was “excellent radical scavenging potency”. In addition, the results for the Vmax in test [3] (3b concentration 0.009 µM), in test [3] (3b concentration 0.018 µM) and in test [3] (3b concentration 0.036 µM) were 0.000467 ΔA/Sec, 0.000343 ΔA/Sec and 0.000183 ΔA/Sec, respectively. For the same compound, in test [3] (Lineweaver–Burk analysis), the “Mode of inhibition of AChE” value is on record as “mixed mode of inhibition”. Besides, the Ki in test [3] (from plot of slope versus inhibitor concentration, read-out: Ki (EI dissociation constant)) came out at 0.0031 µM.
For the compound `COc1ccc(C(=O)N2CCN(c3cc4c(cc3F)c(=O)c(-c3nnc(N)s3)cn4C3CC3)CC2)cc1` [Compound 3h, 3-(5-amino-1,3,4-thiadiazol-2-yl)-1-cyclopropyl-6-fluoro-7-(4-(4-methoxybenzoyl)piperazin-1-yl)quinolin-4(1H)-one], the IC50 in test [1] (setting [4]) came to 1.71 ± 0.0865 µM.
On to `COc1ccc2cc([C@H](C)c3nnc(N)s3)ccc2c1` [Compound 3e, (S)-5-(1-(6-methoxynaphthalen-2-yl)ethyl)-1,3,4-thiadiazol-2-amine], for which, in test [1] (setting [4]), the IC50 worked out at 3.81 ± 0.19 µM.
Regarding `C[C@@H]1COc2c(N3CCN(C)CC3)c(F)cc3c(=O)c(-c4nnc(N)s4)cn1c23` [Compound 3c, (R)-6-(5-amino-1,3,4-thiadiazol-2-yl)-9-fluoro-3-methyl-10-(4-methylpiperazin-1-yl)-2H-[1,4]oxazino[2,3,4-ij]quinolin-7(3H)-one], the IC50 in test [1] (setting [4]) is 0.5763 ± 0.0036 µM.
Take `Nc1nnc(-c2cn(C3CC3)c3cc(N4CCN(C(=O)c5cccc([N+](=O)[O-])c5)CC4)c(F)cc3c2=O)s1` [Compound 3g, 3-(5-amino-1,3,4-thiadiazol-2-yl)-1-cyclopropyl-6-fluoro-7-(4-(3-nitrobenzoyl)piperazin-1-yl)qui nolin-4(1H)-one]: in test [1] (setting [4]), the IC50 is 1.18 ± 0.0591 µM.
With `CC(C)Cc1ccc(C(C)c2nnc(N)s2)cc1` (stereo not shown) [Compound 3d, 5-(1-(4-isobutylphenyl)ethyl)-1,3,4-thiadiazol-2-amine], the IC50 in test [1] (setting [4]) stood at 2.24 ± 0.112 µM.
Same read-out and setting: the figure for `Nc1nnc(COCCN2CCN(C(c3ccccc3)c3ccc(Cl)cc3)CC2)s1` (stereo not shown) [Compound 3f, 5-((2-(4-((4-chlorophenyl)(phenyl)methyl)piperazin-1-yl)ethoxy)methyl)-1,3,4-thiadiazol-2-amine] is 17.3 ± 0.863 µM.

The term IC50 denotes the midpoint of a concentration-inhibition curve. The Ki is the dissociation constant of the complex between target and ligand, obtained from inhibition or displacement.
